Test results reported in patent US12384800B2, “Antitumoral compounds” (priority 2017, dated 2025).

Legend:
HT1080 tumors = test: Human fibrosarcoma xenograft, total diameter (tumor + leg)
MDA-MB-231 tumors = test: Human breast xenograft, tumor volume
Procedure: (§1) Female athymic nu/nu mice (Harlan Laboratories Models, S.L. Barcelona, Spain or Envigo, Spain) were utilized for all experiments. Animal were housed in individually ventilated cages Sealsafe® Plus, Techniplast S.P.A.), up to ten per cage on a 12-hour light-dark cycle at 21-23° C. and 40-60% humidity. […] Animals were acclimated for at least 5 days prior to tumor implantation with a tumor cell suspension.
MDA-MB-231 cells were maintained in vitro at 37° C. with 5% CO2 in Dulbecco's Modified Eagle's Medium (Sigma-Aldrich, Co). Culture cells were passaged every 3 to 5 days upon reaching confluence.
(§2) Treatment tolerability was assessed by monitoring body weight evolution, clinical signs of systemic toxicity, as well as evidences of local damage in the injection site.
(§3) In Xenograft Studies with Other Cell Lines: • Tumor volume was calculated using the equation (a·b^2)/2, where a: length (longest diameter) and b: width (shortest diameter) were measured in mm by using digital caliper (Fowler Sylvac, S235PAT).
(§4) Treatments producing >20% lethality and/or 20% net body weight loss were considered toxic.

H460 tumors = test: Human lung (NSCLC) xenograft, tumor volume
Procedure: as §1
H460 cells were maintained in vitro at 37° C. with 5% CO2 in Dulbecco's Modified Eagle's Medium (Sigma-Aldrich, Co). Culture cells were passaged every 3 to 5 days upon reaching confluence. Each animal was subcutaneously implanted (on the right flank using 26G needle and a 1 cc syringe) at 4-6 weeks of age with 5×10^6 H460 cells suspended in 0.05 mL of a solution consisting of 50% Matrigel® (Corning Incorporated Life Sciences) and 50% medium without serum or antibiotics.
as §2, §3, §4
Tables and figures summarize the data obtained from complete experimental groups, i.e. those groups keeping the initial number of animals, n=8-10.

HGC27 tumors = test: Human gastric xenograft, tumor volume
A2780 tumors = test: Human ovarian xenograft, tumor volume
Procedure: as §1
Culture cells were passaged every 3 to 5 days upon reaching confluence. Each animal was subcutaneously implanted (on the right flank using 26G needle and a 1 cc syringe) at 4-6 weeks of age with 10×10^6 A2780 cells suspended in 0.05 mL of a solution consisting of 50% Matrigel® (Corning Incorporated Life Sciences) and 50% medium without serum or antibiotics.
as §2, §3, §4

In the case of COc1c(C)cc2c(c1O)[C@@H]1[C@@H]3[C@@H]4SC[C@]5(N[C@H](CO)Cc6c5oc5ccccc65)C(=O)OC[C@@H](c5c6c(c(C)c(OC(C)=O)c54)OCO6)N3[C@@H](O)[C@H](C2)N1C [Compound 39-S], the “Total diameter (tumor + leg)” value (HT1080 tumors; Day 2) was 7.9 mm, the “Total diameter (tumor + leg)” value (HT1080 tumors; Day 5) was 6.4 mm and the “Total diameter (tumor + leg)” value (HT1080 tumors; Day 7) was 6.8 mm. The “Total diameter (tumor + leg)” value (HT1080 tumors; Day 9) was 6.9 mm, the “Total diameter (tumor + leg)” value (HT1080 tumors; Day 12) was 6.6 mm and the “Total diameter (tumor + leg)” value (HT1080 tumors; Day 14) was 6.4 mm. For the same molecule, the “Total diameter (tumor + leg)” value (HT1080 tumors; Day 16) was 6.8 mm, the “Total diameter (tumor + leg)” value (HT1080 tumors; Day 19) was 7.0 mm and the “Total diameter (tumor + leg)” value (HT1080 tumors; Day 21) was 7.0 mm. For the same molecule, the “Total diameter (tumor + leg)” value (HT1080 tumors; Day 23) was 8.5 mm, the “Total diameter (tumor + leg)” value (HT1080 tumors; Day 27) was 10.8 mm and the “Total diameter (tumor + leg)” value (HT1080 tumors; Day 33) was 14.3 mm. For the same molecule, the “Total diameter (tumor + leg)” value (HT1080 tumors; Day 35) was 15.3 mm, the “Total diameter (tumor + leg)” value (HT1080 tumors; Day 37) was 18.0 mm and the “Median Tumor Volume” value (MDA-MB-231 tumors; Day 2) was 209.3 mm^3. For the same molecule, the “Median Tumor Volume” value (MDA-MB-231 tumors; Day 5) was 290.9 mm^3, the “Median Tumor Volume” value (MDA-MB-231 tumors; Day 7) was 301.8 mm^3 and the “Median Tumor Volume” value (MDA-MB-231 tumors; Day 9) was 300.8 mm^3. The “Median Tumor Volume” value (MDA-MB-231 tumors; Day 12) was 278.7 mm^3, the “Median Tumor Volume” value (MDA-MB-231 tumors; Day 14) was 249.7 mm^3 and the “Median Tumor Volume” value (MDA-MB-231 tumors; Day 16) was 243.6 mm^3. The “Median Tumor Volume” value (MDA-MB-231 tumors; Day 19) was 248.3 mm^3, the “Median Tumor Volume” value (MDA-MB-231 tumors; Day 21) was 250.0 mm^3 and the “Median Tumor Volume” value (MDA-MB-231 tumors; Day 23) was 260.3 mm^3. For the same molecule, the “Median Tumor Volume” value (MDA-MB-231 tumors; Day 26) was 304.9 mm^3, the “Median Tumor Volume” value (MDA-MB-231 tumors; Day 28) was 337.1 mm^3 and the “Median Tumor Volume” value (MDA-MB-231 tumors; Day 30) was 451.3 mm^3. The “Median Tumor Volume” value (MDA-MB-231 tumors; Day 33) was 584.1 mm^3, the “Median Tumor Volume” value (MDA-MB-231 tumors; Day 35) was 683.4 mm^3 and the “Median Tumor Volume” value (MDA-MB-231 tumors; Day 37) was 784.7 mm^3. For the same molecule, the “Median Tumor Volume” value (MDA-MB-231 tumors; Day 40) was 937.4 mm^3, the “Median Tumor Volume” value (MDA-MB-231 tumors; Day 42) was 1060.5 mm^3 and the “Median Tumor Volume” value (MDA-MB-231 tumors; Day 44) was 1170.5 mm^3. The “Median Tumor Volume” value (MDA-MB-231 tumors; Day 47) was 1112.9 mm^3, the “Median Tumor Volume” value (MDA-MB-231 tumors; Day 49) was 1138.6 mm^3 and the “Median Tumor Volume” value (MDA-MB-231 tumors; Day 51) was 1283.2 mm^3. The “Median Tumor Volume” value (MDA-MB-231 tumors; Day 54) was 1415.1 mm^3, the “Median Tumor Volume” value (MDA-MB-231 tumors; Day 56) was 1518.7 mm^3 and the “Median Tumor Volume” value (MDA-MB-231 tumors; Day 58) was 1728.5 mm^3. For the same molecule, the “Median Tumor Volume” value (MDA-MB-231 tumors; Day 61) was 2017.9 mm^3, the “Median Tumor Volume” value (H460 tumors; Day 2) was 314.4 mm^3 and the “Median Tumor Volume” value (H460 tumors; Day 5) was 584.1 mm^3. The “Median Tumor Volume” value (H460 tumors; Day 7) was 831.2 mm^3, the “Median Tumor Volume” value (H460 tumors; Day 9) was 841.0 mm^3 and the “Median Tumor Volume” value (H460 tumors; Day 12) was 1008.0 mm^3. For the same molecule, the “Median Tumor Volume” value (H460 tumors; Day 14) was 1309.8 mm^3, the “Median Tumor Volume” value (H460 tumors; Day 16) was 1470.0 mm^3 and the “Median Tumor Volume” value (H460 tumors; Day 19) was 2025.0 mm^3. The “Median Tumor Volume” value (HGC27 tumors; Day 2) was 356.3 mm^3, the “Median Tumor Volume” value (HGC27 tumors; Day 5) was 469.7 mm^3 and the “Median Tumor Volume” value (HGC27 tumors; Day 7) was 467.8 mm^3. The “Median Tumor Volume” value (HGC27 tumors; Day 9) was 575.2 mm^3, the “Median Tumor Volume” value (HGC27 tumors; Day 12) was 611.1 mm^3 and the “Median Tumor Volume” value (HGC27 tumors; Day 14) was 637.3 mm^3. For the same molecule, the “Median Tumor Volume” value (HGC27 tumors; Day 16) was 690.4 mm^3, the “Median Tumor Volume” value (HGC27 tumors; Day 19) was 701.8 mm^3 and the “Median Tumor Volume” value (HGC27 tumors; Day 21) was 697.4 mm^3. The “Median Tumor Volume” value (HGC27 tumors; Day 23) was 715.5 mm^3, the “Median Tumor Volume” value (HGC27 tumors; Day 26) was 898.1 mm^3 and the “Median Tumor Volume” value (HGC27 tumors; Day 28) was 1163.4 mm^3. For the same molecule, the “Median Tumor Volume” value (HGC27 tumors; Day 30) was 1409.3 mm^3, the “Median Tumor Volume” value (HGC27 tumors; Day 33) was 1450.5 mm^3 and the “Median Tumor Volume” value (HGC27 tumors; Day 35) was 1708.5 mm^3. For the same molecule, the “Median Tumor Volume” value (HGC27 tumors; Day 37) was 1804.4 mm^3, the “Median Tumor Volume” value (HGC27 tumors; Day 40) was 2075.2 mm^3 and the “Median Tumor Volume” value (A2780 tumors; Day 2) was 206.5 mm^3. The “Median Tumor Volume” value (A2780 tumors; Day 5) was 163.4 mm^3, the “Median Tumor Volume” value (A2780 tumors; Day 7) was 298.6 mm^3 and the “Median Tumor Volume” value (A2780 tumors; Day 9) was 317.4 mm^3. The “Median Tumor Volume” value (A2780 tumors; Day 12) was 378.2 mm^3, the “Median Tumor Volume” value (A2780 tumors; Day 14) was 668.5 mm^3 and the “Median Tumor Volume” value (A2780 tumors; Day 16) was 853.5 mm^3. The “Median Tumor Volume” value (A2780 tumors; Day 19) was 1415.5 mm^3, the “Median Tumor Volume” value (A2780 tumors; Day 21) was 1519.2 mm^3 and the “Median Tumor Volume” value (A2780 tumors; Day 23) was 1666.0 mm^3. The “Median Tumor Volume” value (A2780 tumors; Day 30) was 2025.0 mm^3.
COc1c(C)cc2c(c1O)[C@@H]1[C@@H]3[C@@H]4SC[C@]5(N[C@@H](CN)Cc6c5oc5ccccc65)C(=O)OC[C@@H](c5c6c(c(C)c(OC(C)=O)c54)OCO6)N3[C@@H](O)[C@H](C2)N1C [Compound 47-R] was tested, and the “Total diameter (tumor + leg)” value (HT1080 tumors; Day 2) was 8.9 mm, the “Total diameter (tumor + leg)” value (HT1080 tumors; Day 5) was 10.1 mm and the “Total diameter (tumor + leg)” value (HT1080 tumors; Day 7) was 10.5 mm. The “Total diameter (tumor + leg)” value (HT1080 tumors; Day 9) was 11.5 mm, the “Total diameter (tumor + leg)” value (HT1080 tumors; Day 12) was 13.5 mm and the “Total diameter (tumor + leg)” value (HT1080 tumors; Day 14) was 13.9 mm. The “Total diameter (tumor + leg)” value (HT1080 tumors; Day 16) was 14.6 mm, the “Total diameter (tumor + leg)” value (HT1080 tumors; Day 19) was 18.0 mm and the “Median Tumor Volume” value (MDA-MB-231 tumors; Day 2) was 225.3 mm^3. For the same molecule, the “Median Tumor Volume” value (MDA-MB-231 tumors; Day 5) was 323.2 mm^3, the “Median Tumor Volume” value (MDA-MB-231 tumors; Day 7) was 405.0 mm^3 and the “Median Tumor Volume” value (MDA-MB-231 tumors; Day 9) was 495.9 mm^3. The “Median Tumor Volume” value (MDA-MB-231 tumors; Day 12) was 594.1 mm^3, the “Median Tumor Volume” value (MDA-MB-231 tumors; Day 14) was 769.5 mm^3 and the “Median Tumor Volume” value (MDA-MB-231 tumors; Day 16) was 1009.5 mm^3. The “Median Tumor Volume” value (MDA-MB-231 tumors; Day 19) was 1298.0 mm^3, the “Median Tumor Volume” value (MDA-MB-231 tumors; Day 21) was 1580.7 mm^3 and the “Median Tumor Volume” value (MDA-MB-231 tumors; Day 23) was 2006.5 mm^3. The “Median Tumor Volume” value (MDA-MB-231 tumors; Day 26) was 2032.1 mm^3, the “Median Tumor Volume” value (H460 tumors; Day 2) was 508.1 mm^3 and the “Median Tumor Volume” value (H460 tumors; Day 5) was 979.3 mm^3. For the same molecule, the “Median Tumor Volume” value (H460 tumors; Day 7) was 1280.0 mm^3, the “Median Tumor Volume” value (H460 tumors; Day 9) was 1543.1 mm^3 and the “Median Tumor Volume” value (H460 tumors; Day 12) was 1764.0 mm^3. The “Median Tumor Volume” value (H460 tumors; Day 14) was 1845.5 mm^3, the “Median Tumor Volume” value (HGC27 tumors; Day 2) was 359.4 mm^3 and the “Median Tumor Volume” value (HGC27 tumors; Day 5) was 774.8 mm^3. For the same molecule, the “Median Tumor Volume” value (HGC27 tumors; Day 7) was 1155.4 mm^3, the “Median Tumor Volume” value (HGC27 tumors; Day 9) was 1474.7 mm^3 and the “Median Tumor Volume” value (HGC27 tumors; Day 12) was 1870.2 mm^3. For the same molecule, the “Median Tumor Volume” value (HGC27 tumors; Day 14) was 2031.3 mm^3, the “Median Tumor Volume” value (HGC27 tumors; Day 16) was 2075.2 mm^3 and the “Median Tumor Volume” value (A2780 tumors; Day 2) was 280.6 mm^3. For the same molecule, the “Median Tumor Volume” value (A2780 tumors; Day 5) was 653.9 mm^3, the “Median Tumor Volume” value (A2780 tumors; Day 7) was 848.7 mm^3 and the “Median Tumor Volume” value (A2780 tumors; Day 9) was 1569.1 mm^3. The “Median Tumor Volume” value (A2780 tumors; Day 12) was 1764.0 mm^3, the “Median Tumor Volume” value (A2780 tumors; Day 14) was 1666.0 mm^3 and the “Median Tumor Volume” value (A2780 tumors; Day 16) was 2025.0 mm^3.
